Read-outs that look alike come from different tables or passages of the source.
How the values were obtained:
MDR1 (P-gp) = assay: MDR1-MDCKII permeability assay; type: in vitro ADME; settings: dog, MDCK-MDR1, pH 7.4, MDR1-MDCKII
Description: (§1) MDR1‐MDCKII assay was processed by Sai Life Sciences Pvt. Ltd. Briefly, MDR1‐MDCKII cells were seeded onto the polycarbonate membranes in the 24‐well insert system at 0.12 × 10^6 cells/well and cultured for 8 days until confluence before being used for the transport studies. Test compounds were diluted with the transport buffer (HPSS with 10 mM HEPES, pH 7.4) from a DMSO stock solution to a concentration of 2 µM (DMSO < 1%) and applied to the apical or basolateral side of the cell monolayer. The plate was incubated for 2.0 h in a CO2 incubator at 37±1°C, with 5% CO2 at saturated humidity without shaking. Permeability was measured in duplicate (n = 2) in both A→B and B→A directions. Loperamide (P‐gp efflux substrate) was tested at 2 µM bidirectionally, Verapamil was used as P‐gp inhibitor. While Atenolol (low permeability marker) and Propranolol (high permeability marker) were tested at 2.00 µM in the A to B direction in duplicate. Test and reference compounds were quantified by LC‐MS/MS analysis based on the peak area ratio of analyte/internal standard (IS). The efflux ratio of each compound was calculated. Permeability measurements were performed in duplicate (n = 2) in both directions, and the summarized permeability values and efflux ratios are presented in Figure 3A. The corresponding experimental data, including bidirectional Papp values, recovery, and variability (%CV), are provided in Table S3, thereby supporting the results shown in Figure 3A. After the transport assay, Lucifer yellow fluorescence rejection assay was performed to confirm the integrity of the cell monolayer.

P-gp (MDR1) = assay: MDR1-MDCKII permeability assay; type: in vitro ADME; settings: dog, MDCK-MDR1, pH 7.4, MDR1-MDCKII, 2 µM, 2.0 h, n = 2; for Papp A→B at 2 h, 2 µM: read-out: Apical to basal (AP-BL) Papp; for Papp B→A at 2 h, 2 µM: read-out: Basal to apical (BL-AP) Papp
Description: as §1

SUMO1 = SUMO1 protein levels (western / dot blot); type: cell-based, human
CAPRIN1–APP interaction = CAPRIN1–APP interaction (Homo sapiens, UniProt P05067+Q14444); assay: CAPRIN1–APP interaction in cells (co-IP, confocal colocalization); type: cell-based; design: endogenous in cells; host or cells: AG27606-Ns, sAD2.3-Ns (iPSC-derived neurons) and their lysates; settings: 10 µM, 24 h; for APP–CAPRIN1 colocalization (confocal, Pearson's coefficient): AG27606-Ns and sAD2.3-Ns
Sequence of CAPRIN1–APP interaction (Q14444 2-709 limits assumed): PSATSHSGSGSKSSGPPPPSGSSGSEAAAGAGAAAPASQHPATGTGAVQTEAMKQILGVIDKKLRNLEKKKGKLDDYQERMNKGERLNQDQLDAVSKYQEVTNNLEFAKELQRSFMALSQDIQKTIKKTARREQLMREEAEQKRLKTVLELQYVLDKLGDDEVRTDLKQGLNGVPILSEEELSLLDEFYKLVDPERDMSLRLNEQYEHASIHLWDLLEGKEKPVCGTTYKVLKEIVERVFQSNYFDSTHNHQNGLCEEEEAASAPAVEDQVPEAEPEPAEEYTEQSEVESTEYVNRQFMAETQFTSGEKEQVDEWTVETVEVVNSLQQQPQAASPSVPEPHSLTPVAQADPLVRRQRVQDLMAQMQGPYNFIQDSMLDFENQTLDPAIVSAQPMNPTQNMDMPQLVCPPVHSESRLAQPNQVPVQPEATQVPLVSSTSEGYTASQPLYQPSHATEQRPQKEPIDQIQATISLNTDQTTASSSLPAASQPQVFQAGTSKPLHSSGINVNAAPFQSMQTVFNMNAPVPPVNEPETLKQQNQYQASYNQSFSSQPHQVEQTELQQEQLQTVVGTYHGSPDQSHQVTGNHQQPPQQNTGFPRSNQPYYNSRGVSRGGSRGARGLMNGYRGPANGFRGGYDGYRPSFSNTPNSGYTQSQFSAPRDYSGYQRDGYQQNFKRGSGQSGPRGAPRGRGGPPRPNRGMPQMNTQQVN
Sequence of CAPRIN1–APP interaction (P05067 18-695 isoform P05067-4 limits assumed): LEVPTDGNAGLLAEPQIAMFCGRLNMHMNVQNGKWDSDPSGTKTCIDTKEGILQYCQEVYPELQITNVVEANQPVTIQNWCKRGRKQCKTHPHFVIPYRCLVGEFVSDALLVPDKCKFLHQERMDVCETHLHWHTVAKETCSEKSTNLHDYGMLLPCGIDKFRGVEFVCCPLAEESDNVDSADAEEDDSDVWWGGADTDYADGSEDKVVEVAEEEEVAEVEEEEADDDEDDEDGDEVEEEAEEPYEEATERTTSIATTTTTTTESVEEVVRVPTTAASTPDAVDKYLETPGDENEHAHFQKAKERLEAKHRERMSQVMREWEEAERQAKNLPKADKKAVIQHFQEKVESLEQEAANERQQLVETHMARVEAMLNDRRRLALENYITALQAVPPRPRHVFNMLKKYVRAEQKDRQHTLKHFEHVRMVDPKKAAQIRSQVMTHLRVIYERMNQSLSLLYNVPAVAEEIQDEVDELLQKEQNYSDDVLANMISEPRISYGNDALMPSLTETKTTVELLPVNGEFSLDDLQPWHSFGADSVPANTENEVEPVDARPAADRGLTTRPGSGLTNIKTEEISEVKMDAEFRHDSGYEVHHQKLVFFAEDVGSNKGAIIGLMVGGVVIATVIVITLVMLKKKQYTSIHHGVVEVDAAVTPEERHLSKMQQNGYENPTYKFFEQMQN
Description: Cells were lysed in 1% Triton X‐100 buffer (50 mM Tris (pH 7.4), 150 mM NaCl, 10% glycerol, 1% Triton X‐100, 1 mM EDTA) or RIPA buffer (50 mM Tris (pH7.5), 150 mM NaCl, 0.5% NP40, 0.5% deoxycholate, 0.1% SDS) supplemented with 1 mM PMSF, protease and phosphatase inhibitors. For immunoprecipitation, cell lysates (0.5–1 mg) were incubated with the primary antibodies (1–2 µg) overnight at 4°C and mixed with protein G beads for 4 h. The immunoprecipitants were washed with 1% Triton X‐100 buffer 3 times and eluted with Laemmli buffer, followed by western blot. Immunoprecipitations were performed using the following approaches: (i) Tagged CAPRIN1 immunoprecipitation (HEK293 overexpression assays): HEK293 cells were co‐transfected with APP constructs (including APP695‐HiBiT) and Flag‐ or Myc‐tagged CAPRIN1. CAPRIN1 was immunoprecipitated using anti‐Flag or anti‐Myc antibodies, and co‐precipitated APP was detected by immunoblot; (ii) Endogenous APP immunoprecipitation: APP was immunoprecipitated using anti‐APP antibody (Sigma, A8717), followed by immunoblotting for CAPRIN1. Where indicated, reciprocal immunoprecipitation using anti‐CAPRIN1 antibody was performed, followed by APP detection; (iii) CAPRIN1 immunoprecipitation: In selected experiments, CAPRIN1 was immunoprecipitated using anti‐CAPRIN1 antibody (Proteintech, 15112‐1‐AP), and co‐precipitated proteins including APP and LAMP1 were analyzed by immunoblot; (iv) HiBiT‐based pull‐down assays: In HEK293 cells expressing APP695‐HiBiT, APP constructs were immunoprecipitated using anti‐HiBiT antibody (Promega, N7200), followed by detection of CAPRIN1. Western blot bands were quantified using Fiji (ImageJ) with background subtraction and normalized to loading controls.
Cells were grown on glass cover slips coated with 1% Matrigel and treated with drugs. Cells were washed, fixed, permeabilized, blocked, and incubated in primary antibodies diluted in blocking solution (1% v/v BSA solution/5% Goat serum in PBS containing 0.1% Triton X‐100) overnight at 4°C. The cells were washed three times with PBS and incubated in secondary antibodies in a blocking solution for 1 h at room temperature, then washed with PBS, followed by HOECHST staining (Invitrogen) for 5 min, and washed with PBS. The glass coverslips were put on a slide‐in mounting medium ([…]), and the edges were sealed with coverslip sealant (BIOTIUM). […]
ImageJ (Fiji) program (NIH, Bethesda, MD, USA) was used o analyze images. Pearson's correlation coefficients were calculated with the JACoP plugin from two channels (BIOP). […] Colocalized areas were calculated in the image calculator tool ([…] function) to get an overlayed area for the segmented signals, followed by using the analyze particle tool in Fiji to determine by > 1‐pixel overlapping of the segmented signal. […]

[1] = read-out: % Recovery (Overall) - Apical to basal
[2] = read-out: % Recovery (Overall) - Basal to Apical

| SMILES | recovery at 2 h, 2 µM (MDR1 (P-gp); [1]) [%] | recovery at 2 h, 2 µM (MDR1 (P-gp); [2]) [%] | efflux ratio at 2 h, 2 µM (P-gp (MDR1)) | Papp A→B at 2 h, 2 µM (P-gp (MDR1)) [×10⁻⁶ cm/s] | Papp B→A at 2 h, 2 µM (P-gp (MDR1)) [×10⁻⁶ cm/s] | SUMO1 protein levels in cancer cells (SUMO1; HCT116 and LN229 cells) | APP–CAPRIN1 colocalization (confocal, Pearson's coefficient) (CAPRIN1–APP interaction) | CAPRIN1–APP interaction (APP IP, CAPRIN1 immunoblot) (CAPRIN1–APP interaction; AG27606-Ns) | CAPRIN1–APP interaction (co-IP) (CAPRIN1–APP interaction; HEK-APP695 cells) | SUMO1 levels in neuronal cells (SUMO1; AG27606-derived neurons, 10 µM, 3 days) |
| --- | --- | --- | --- | --- | --- | --- | --- | --- | --- | --- |
| N#Cc1cccc(NC(=O)Nc2nc3ccc(C(=O)N4CCOCC4)cc3s2)c1 [compound 0043] | 121 | 106 | 114 | 0.4 | 42.6 | no effects | increased co‐localization of APP and CAPRIN1 | enhances CAPRIN1‐APP interaction | enhanced the interaction between CAPRIN1 and APP | – |
| COc1cccc(NC(=O)Nc2nc3ccc(C(=O)N4CCOCC4)cc3s2)c1 [compound 0152] | 121 | 141 | 78 | 0.5 | 37.4 | – | increased colocalization of APP and CAPRIN1 | – | – | no appreciable change |
